Results published in patent publication US20250154212A1, “METHOD OF DISRUPTING MEMORY AND LIPOPEPTIDE FOR USE IN SUCH METHOD” (The Research Foundation for The State University of New York, priority 2023, published 2025).
Entries after “also recorded” stand apart in the source; their conditions may differ. Where no end group is shown, it is not given here. The star is where a group is joined. Myristoyl = CCCCCCCCCCCCCC(=O)*

Experiments:
KIBRA-PKMζ interaction = target: T1, KIBRA-PKMζ interaction (Homo sapiens, UniProt Q05513); assay: BiFC (split-Venus) assay of KIBRA-PKMζ interaction in transfected HEK293T cells; type: cell-based; conditions: for effect on KIBRA-PKMζ interaction/dimerization (BiFC): 10 μM
T1 construct: expressed in transfected cells; host or cells: HEK293T
T1 sequence (Q05513 1-409 isoform Q05513-2): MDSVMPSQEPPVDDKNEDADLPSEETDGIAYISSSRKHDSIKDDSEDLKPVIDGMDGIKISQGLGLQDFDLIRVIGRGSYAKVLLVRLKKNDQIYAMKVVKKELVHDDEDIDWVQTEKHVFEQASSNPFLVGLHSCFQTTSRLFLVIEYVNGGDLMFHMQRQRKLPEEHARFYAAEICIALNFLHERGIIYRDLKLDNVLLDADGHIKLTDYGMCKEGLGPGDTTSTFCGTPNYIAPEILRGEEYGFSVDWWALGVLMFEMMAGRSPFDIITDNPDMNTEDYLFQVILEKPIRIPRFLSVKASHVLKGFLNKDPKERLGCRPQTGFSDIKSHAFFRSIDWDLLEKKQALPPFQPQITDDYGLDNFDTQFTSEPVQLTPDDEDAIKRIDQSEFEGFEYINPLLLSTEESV
Method: (§1) KIBRA-PKMζ BiFC was performed as previously described (28), using pVen1-FLAG-KIBRA and pVen2-HA-PKMζ, in which PKMζ was cloned between EcoR1 and BamH1 sites. The constructs pVen1 and pVen2 encode the N-terminus (amino acids 1-154) and C-terminus (amino acids 155-238) of the Venus protein, respectively, and the Venus fragments were on the N-terminal of the fusion proteins. pVen2-HA-PKMζ[PKCι/λ-P291Q;F297S] was generated by site-directed mutagenesis using forward-cctggagAagcAAatceggatcccccggtCcctgtccgte and reverse-gacggacaggGaccgggggatccggatTTgctTctccagg primers and the QuickChange II XL Site-Directed Mutagenesis Kit (Agilent Technologies), following manufacturer's instructions. Additional pVen2-HA-PKC isoforms and pVen2-HA-CaMKIIα in the pVen2-HA vector were generated by cloning the N-terminus of the coding sequence of each kinase (table S1) to obtain an in-frame fusion at the C-terminus of the pVen2-HA. Human versions of KIBRA and kinases were used, and all PCR amplified sequences and constructs were verified by DNA sequencing.
(§2) HEK293T cells were cultured in Dulbecco's Modified Eagle's Medium supplemented with 10% heat-inactivated fetal bovine serum, 100 U/ml penicillin, […] streptomycin, 2 mM glutamine, and 10 mM HEPES in a T75 tissue culture flask with canted neck and ventilated cap. Twenty-four hours prior to transfection, 1×10^5 HEK293T cells in 1 ml of media were plated on poly-D-lysine-treated coverslips in 24-well plates. One hour prior to transfection, 0.5 ml of the media was removed from each well, and ζ-stat or K-ZAP was added to the media that had been removed. The remaining media in each well was then discarded and substituted with the 0.5 ml pre-conditioned media containing ζ-stat or K-ZAP at designated concentrations. For transfection a total of 50 ng of DNA was delivered to each well using Lipofectamine 3000 (Invitrogen) and OptiMEM 1× reduced serum medium (Invitrogen) at a plasmid-to-plasmid ratio of 1:1. The amount of transfected DNA was optimized to produce relatively low concentrations of proteins during overexpression. […]

KIBRA-PKCι/λ interaction = target: T2, KIBRA-PKCι/λ interaction (Homo sapiens, UniProt P41743); assay: BiFC assay of KIBRA-PKCι/λ interaction in HEK293T cells; type: cell-based; conditions: 10 μM
T2 construct: expressed in transfected cells; host or cells: HEK293T
T2 sequence (P41743 10-596): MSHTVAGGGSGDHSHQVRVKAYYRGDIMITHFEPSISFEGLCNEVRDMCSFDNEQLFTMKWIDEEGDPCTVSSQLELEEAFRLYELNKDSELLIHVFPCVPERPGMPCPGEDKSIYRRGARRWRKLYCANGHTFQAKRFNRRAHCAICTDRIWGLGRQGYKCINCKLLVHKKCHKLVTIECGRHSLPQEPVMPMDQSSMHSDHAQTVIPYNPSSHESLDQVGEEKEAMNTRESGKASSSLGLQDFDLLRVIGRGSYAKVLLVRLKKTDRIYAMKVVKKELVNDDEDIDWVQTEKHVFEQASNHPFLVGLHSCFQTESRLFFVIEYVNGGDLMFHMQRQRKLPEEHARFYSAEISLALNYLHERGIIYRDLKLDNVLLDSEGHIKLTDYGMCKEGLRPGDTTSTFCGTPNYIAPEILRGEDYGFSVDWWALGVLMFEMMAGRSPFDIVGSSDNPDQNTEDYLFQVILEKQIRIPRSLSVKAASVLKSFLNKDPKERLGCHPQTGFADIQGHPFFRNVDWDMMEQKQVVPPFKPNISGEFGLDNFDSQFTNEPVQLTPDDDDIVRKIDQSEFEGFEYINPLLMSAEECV
Method: as §1, §2

O=S(=O)(O)c1cc(O)c2c(S(=O)(=O)O)cc(S(=O)(=O)O)cc2c1 [ζ-stat, 1-naphthol-3,6,8-trisulphonic acid]
effect on KIBRA-PKMζ interaction/dimerization (BiFC) (KIBRA-PKMζ interaction; listed as z-stat): inhibits KIBRA interaction with PKMz; also recorded: decreases BIFC | IC50 (KIBRA-PKMζ interaction; dose-response curve, n's=4, read-out: IC50 for inhibition of KIBRA-PKMζ interaction (BiFC)): ~1000 nM | effect on KIBRA-PKCι/λ interaction (BiFC) (KIBRA-PKCι/λ interaction; listed as C-stat): no measurable effect | effect on KIBRA-PKCι/λ interaction (BiFC) (KIBRA-PKCι/λ interaction; listed as z-stat): has no effects

myr-N-FVRNSLERRSVRMKRPS-C (Myristoyl-FVRNSLERRSVRMKRPS) [K-ZAP]
effect on KIBRA-PKMζ interaction/dimerization (BiFC) (KIBRA-PKMζ interaction): inhibits PKMz-KIBRA dimerization | effect on KIBRA-PKCι/λ interaction (BiFC) (KIBRA-PKCι/λ interaction): not measurably affected
